According to patent publication US11261177B2, “Benzoxazinone derivatives useful as herbicides” (REDAG CROP PROTECTION LTD, priority 2017, dated 2022):

What was measured:
Assay type in all cases: in vivo
[1] = tested on: Lolium perenne; assay: Post-emergence herbicidal assay, 96 cell trays, glasshouse; details: 168 h, Lollium, assessed 7 days after treatment, read-out: % control of plant growth; for pest or weed control at 200 g/ha: 0.2 kg/ha; for pest or weed control at 1000 g/ha: 1 kg/ha; for pest or weed control at 5000 g/ha: 5 kg/ha
Protocol: (§1) The compounds were screened at three concentrations (0.2, 1 and 5 kg/ha) against 2 weed species (Stellaria media—Chickweed and Lolium perenne). The seeds were sown in the cells of 96 cell trays (4-6 seeds per cell). For the pre-emergence assay, 75 μL of a suspension of the test compound, at the above doses, was added on top of the soil 1 day after sowing. For the post-emergence assay, the seedlings were sprayed with 200 μL of a suspension of the test compound two weeks after sowing. The formulation used is 25% acetone and 75% water/0.01% Tween 20. Each treatment was replicated three times. The plants were kept in a glasshouse (uncontrolled conditions) and assessed 7 days after treatment. A small number of compounds were tested in a first trial. A larger number of compounds were tested in a second trial. The assessment was based on the % control of plant growth in each cell.

[2] = tested on: Stellaria media—Chickweed; assay: as above; details: 168 h, assessed 7 days after treatment, read-out: % control of plant growth; for pest or weed control at 200 g/ha: 0.2 kg/ha; for pest or weed control at 1000 g/ha: 1 kg/ha; for pest or weed control at 5000 g/ha: 5 kg/ha
Protocol: as §1

[3] = tested on: Lolium perenne; assay: Pre-emergence herbicidal assay, 96 cell trays, glasshouse; details: 168 h, Lollium, assessed 7 days after treatment, read-out: % control of plant growth; for pest or weed control at 200 g/ha: 0.2 kg/ha; for pest or weed control at 1000 g/ha: 1 kg/ha; for pest or weed control at 5000 g/ha: 5 kg/ha
Protocol: as §1

[4] = tested on: Stellaria media—Chickweed; assay: as above; details: 168 h, assessed 7 days after treatment, read-out: % control of plant growth; for pest or weed control at 200 g/ha: 0.2 kg/ha; for pest or weed control at 1000 g/ha: 1 kg/ha; for pest or weed control at 5000 g/ha: 5 kg/ha
Protocol: as §1

| Compound | pest or weed control at 200 g/ha ([1]; second trial (Table 2)) [%] | pest or weed control at 1000 g/ha ([1]; second trial (Table 2)) [%] | pest or weed control at 5000 g/ha ([1]; second trial (Table 2)) [%] | pest or weed control at 200 g/ha ([2]; second trial (Table 2)) [%] | pest or weed control at 1000 g/ha ([2]; second trial (Table 2)) [%] | pest or weed control at 5000 g/ha ([2]; second trial (Table 2)) [%] | pest or weed control at 200 g/ha ([3]; second trial (Table 2)) [%] | pest or weed control at 1000 g/ha ([3]; second trial (Table 2)) [%] | pest or weed control at 5000 g/ha ([3]; second trial (Table 2)) [%] | pest or weed control at 200 g/ha ([4]; second trial (Table 2)) [%] | pest or weed control at 1000 g/ha ([4]; second trial (Table 2)) [%] | pest or weed control at 5000 g/ha ([4]; second trial (Table 2)) [%] | other results |
| --- | --- | --- | --- | --- | --- | --- | --- | --- | --- | --- | --- | --- | --- |
| C#CCN1C(=O)C2(CC2)Oc2cc(F)c(-n3c(=O)cc(C(F)(F)F)n(CC#C)c3=O)cc21 [Example 41] | < 20 | 20 to 80 | 80 to 100 | 80 to 100 | 80 to 100 | 80 to 100 | 80 to 100 | 80 to 100 | 80 to 100 | 80 to 100 | 80 to 100 | 80 to 100 | – |
| C#CCN1C(=O)C2(CC2)Oc2cc(F)c(N3C(=O)c4ccccc4C3=O)cc21 [Example 7] | < 20 | 20 to 80 | 20 to 80 | 80 to 100 | 80 to 100 | 80 to 100 | 20 to 80 | 80 to 100 | 80 to 100 | 80 to 100 | 80 to 100 | 80 to 100 | – |
| C#CCN1C(=O)C2(CCC2)Oc2cc(F)c(N3C(=O)c4ccc(F)cc4C3=O)cc21 [Example 23] | < 20 | < 20 | < 20 | 80 to 100 | 80 to 100 | 80 to 100 | < 20 | < 20 | 20 to 80 | < 20 | 80 to 100 | 80 to 100 | – |
| C#CCN1C(=O)C2(CC2)Oc2cc(F)c(N3C(=O)C=C(C(F)(F)F)C3=O)cc21 [Example 14] | < 20 | < 20 | < 20 | < 20 | < 20 | < 20 | < 20 | < 20 | < 20 | < 20 | < 20 | < 20 | – |
| C#CCN1C(=O)C2(CC2)Oc2cc(F)c(-n3nc(C(C)(C)C)oc3=O)cc21 [Example 3, 6-(5-(tert-Butyl)-2-oxo-1,3,4-oxadiazol-3(2H)-yl)-7-fluoro-4-(prop-2-yn-1-yl)spiro[benzo[b][1,4]oxazine-2,1′-cyclopropan]-3(4H)-one] | – | – | – | – | – | – | – | – | – | – | – | – | pest or weed control at 200 g/ha ([1]; first trial (Table 1)): 20 to 80%; pest or weed control at 1000 g/ha ([1]; first trial (Table 1)): 80 to 100%; pest or weed control at 5000 g/ha ([1]; first trial (Table 1)): 80 to 100%; pest or weed control at 200 g/ha ([2]; first trial (Table 1)): 20 to 80%; pest or weed control at 1000 g/ha ([2]; first trial (Table 1)): 20 to 80%; pest or weed control at 5000 g/ha ([2]; first trial (Table 1)): 20 to 80%; pest or weed control at 200 g/ha ([3]; first trial (Table 1)): < 20%; pest or weed control at 1000 g/ha ([3]; first trial (Table 1)): 20 to 80%; pest or weed control at 5000 g/ha ([3]; first trial (Table 1)): 80 to 100%; pest or weed control at 200 g/ha ([4]; first trial (Table 1)): 20 to 80%; pest or weed control at 1000 g/ha ([4]; first trial (Table 1)): 80 to 100%; pest or weed control at 5000 g/ha ([4]; first trial (Table 1)): 80 to 100% |
| C#CCN1C(=O)C2(CC2)Oc2cc(F)c(N3C(=O)C4CC4C3=O)cc21 (stereo not drawn) [Example 13] | < 20 | < 20 | < 20 | 80 to 100 | 80 to 100 | 80 to 100 | < 20 | < 20 | 20 to 80 | 20 to 80 | 80 to 100 | 80 to 100 | – |
| C#CCN1C(=O)C2(CC2)Oc2cc(F)c(N3C(=O)C(=O)N(CCC)C3=S)cc21 [Example 2, 1-(7-Fluoro-3-oxo-4-(prop-2-yn-1-yl)-3,4-dihydrospiro[benzo[b][1,4]oxazine-2,1′-cyclopropan]-6-yl)-3-propyl-2-thioxoimidazolidine-4,5-dione] | < 20 | < 20 | < 20 | 20 to 80 | 20 to 80 | 20 to 80 | < 20 | < 20 | < 20 | 20 to 80 | 20 to 80 | 20 to 80 | pest or weed control at 200 g/ha ([1]; first trial (Table 1)): < 20%; pest or weed control at 1000 g/ha ([1]; first trial (Table 1)): < 20%; pest or weed control at 5000 g/ha ([1]; first trial (Table 1)): < 20%; pest or weed control at 200 g/ha ([2]; first trial (Table 1)): 20 to 80%; pest or weed control at 1000 g/ha ([2]; first trial (Table 1)): 20 to 80%; pest or weed control at 5000 g/ha ([2]; first trial (Table 1)): 20 to 80%; pest or weed control at 200 g/ha ([3]; first trial (Table 1)): < 20%; pest or weed control at 1000 g/ha ([3]; first trial (Table 1)): < 20%; pest or weed control at 5000 g/ha ([3]; first trial (Table 1)): < 20%; pest or weed control at 200 g/ha ([4]; first trial (Table 1)): 20 to 80%; pest or weed control at 1000 g/ha ([4]; first trial (Table 1)): 20 to 80%; pest or weed control at 5000 g/ha ([4]; first trial (Table 1)): 20 to 80% |
| C#CCN1C(=O)C2(CCC2)Oc2cc(F)c(N3C(=O)C=C(C(F)(F)F)C3=O)cc21 [Example 24] | < 20 | < 20 | < 20 | < 20 | < 20 | < 20 | < 20 | 20 to 80 | 20 to 80 | < 20 | 20 to 80 | 20 to 80 | – |
